The text below walks through data of PMC10227065, “Structures of Tetrahymena thermophila respiratory megacomplexes on the tubular mitochondrial cristae” (Nature Communications, 2023).

The target of test [1] is T1, NDUA9 (Tt-CI subunit) (Tetrahymena thermophila, UniProt I7MLH2).
T1 construct: gene TTHERM_00557760
T1 sequence (I7MLH2 27-362): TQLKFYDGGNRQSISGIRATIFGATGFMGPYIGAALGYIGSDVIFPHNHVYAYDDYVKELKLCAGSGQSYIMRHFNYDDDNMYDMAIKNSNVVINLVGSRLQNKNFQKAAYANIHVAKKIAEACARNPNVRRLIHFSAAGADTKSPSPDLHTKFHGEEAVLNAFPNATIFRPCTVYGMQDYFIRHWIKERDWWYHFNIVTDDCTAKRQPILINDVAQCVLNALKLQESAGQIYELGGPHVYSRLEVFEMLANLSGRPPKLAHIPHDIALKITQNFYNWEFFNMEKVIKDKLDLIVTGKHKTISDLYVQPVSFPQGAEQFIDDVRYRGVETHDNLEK
Put plainly: cryo-EM structure. As to conditions: printed only as NDP group (PDB ligand code). It counts as binding. The source says: cryo-EM structure on NDUA9 (Tt-CI subunit) | NDP group of NDUA9 and the interfacial heme […]1

Test [2] deals with T2, Tt-CII (SDHA/SDHB hydrophilic head) (Tetrahymena thermophila, UniProt Q23DI3).
T2 construct: gene TTHERM_00047080
Put plainly: cyt c reduction/oxidation, […] nm. Type of test: biochemical. As to conditions: 5 mM malonate; 5 mM succinate, 50 uM decylubiquinone, 100 uM Tt-cyt c, 10 nM megacomplex, pH 7.4, 0.1% digitonin, room temperature.

Test [3] concerns the target T2, Tt-CII (SDHA/SDHB hydrophilic head). Nature of the test: cryo-EM structure. Type of test: binding.

T2 sequence (Q23DI3 1-636): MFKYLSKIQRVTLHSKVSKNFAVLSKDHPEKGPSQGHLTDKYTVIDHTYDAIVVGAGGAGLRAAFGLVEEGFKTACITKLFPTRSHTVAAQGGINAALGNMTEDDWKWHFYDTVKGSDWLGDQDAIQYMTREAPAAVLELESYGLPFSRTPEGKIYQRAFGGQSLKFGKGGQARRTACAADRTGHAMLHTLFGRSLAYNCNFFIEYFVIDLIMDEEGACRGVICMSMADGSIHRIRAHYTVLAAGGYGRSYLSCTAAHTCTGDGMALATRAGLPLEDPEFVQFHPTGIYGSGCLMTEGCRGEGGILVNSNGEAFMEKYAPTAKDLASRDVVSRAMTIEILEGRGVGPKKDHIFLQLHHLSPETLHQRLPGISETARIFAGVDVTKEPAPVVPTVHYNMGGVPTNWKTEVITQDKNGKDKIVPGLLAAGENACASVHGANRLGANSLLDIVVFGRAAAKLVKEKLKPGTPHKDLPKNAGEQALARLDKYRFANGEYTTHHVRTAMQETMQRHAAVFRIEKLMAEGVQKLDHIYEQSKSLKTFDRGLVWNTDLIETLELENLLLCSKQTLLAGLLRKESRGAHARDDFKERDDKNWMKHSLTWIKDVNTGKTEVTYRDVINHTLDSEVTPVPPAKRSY
T2 sequence (I7M403 21-312 partner): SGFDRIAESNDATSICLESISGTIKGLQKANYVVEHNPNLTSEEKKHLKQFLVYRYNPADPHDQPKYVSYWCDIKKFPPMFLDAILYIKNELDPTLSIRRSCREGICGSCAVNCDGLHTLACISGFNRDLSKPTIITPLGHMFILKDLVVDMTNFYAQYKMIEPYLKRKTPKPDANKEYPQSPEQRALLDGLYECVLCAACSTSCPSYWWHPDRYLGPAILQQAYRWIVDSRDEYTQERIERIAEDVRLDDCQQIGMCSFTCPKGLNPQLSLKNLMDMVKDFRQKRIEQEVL

For `NC(=O)C1=CN([C@@H]2O[C@H](COP(=O)(O)OP(=O)(O)OC[C@H]3O[C@@H](n4cnc5c(N)ncnc54)[C@H](OP(=O)(O)O)[C@@H]3O)[C@@H](O)[C@H]2O)C=CC1` [NDP], the cryo-EM structure result in test [1] is “NDP group of NDUA9 and the interfacial heme c SDHTT1”.

For the molecule `O=C(O)CC(=O)O` [malonate], the “cyt c reduction/oxidation, 550 nm” value in test [2] is “NADH and succinate-dependent activities could be inhibited by CI inhibitor rotenone and CII inhibitor malonate”.

As for `Cc1cc2nc3c(=O)[nH]c(=O)nc-3n(C[C@H](O)[C@H](O)[C@H](O)COP(=O)(O)OP(=O)(O)OC[C@H]3O[C@@H](n4cnc5c(N)ncnc54)[C@H](O)[C@@H]3O)c2cc1C` [FAD], the cryo-EM structure result in test [3] was “highly conserved to known CII structures with the FAD and three iron-sulfur clusters in place”.
